Data on 23 compounds can be found in US20250059182A1, “SOS1 INHIBITORS” (Mirati Therapeutics, Inc., priority 2021, published 2025).

SMILES strings stand for the structures.

Test [1] concerns the target T1, recombinant human SOS1 polypeptide (amino acids 560-1049) (Homo sapiens, UniProt Q07889).
T1 construct: corresponding to amino acids 560-1049, expressed in E. Coli; made in house; host or cells: E. coli
T1 sequence (Q07889 560-1049): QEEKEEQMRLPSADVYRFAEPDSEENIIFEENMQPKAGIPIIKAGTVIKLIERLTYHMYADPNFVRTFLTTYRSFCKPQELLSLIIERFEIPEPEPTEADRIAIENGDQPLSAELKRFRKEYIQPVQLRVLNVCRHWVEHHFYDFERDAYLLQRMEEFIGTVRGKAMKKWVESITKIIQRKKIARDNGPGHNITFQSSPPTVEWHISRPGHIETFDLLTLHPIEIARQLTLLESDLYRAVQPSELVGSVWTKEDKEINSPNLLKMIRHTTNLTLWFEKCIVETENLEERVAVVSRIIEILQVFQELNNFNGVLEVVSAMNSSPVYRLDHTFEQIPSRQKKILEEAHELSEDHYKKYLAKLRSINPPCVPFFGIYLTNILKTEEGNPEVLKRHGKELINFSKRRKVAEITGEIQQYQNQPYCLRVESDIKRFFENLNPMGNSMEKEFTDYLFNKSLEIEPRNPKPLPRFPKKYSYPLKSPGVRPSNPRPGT
Briefly: HTRF displacement assay: inhibition of labeled tracer binding to SOS1. The note with it: Table A, Morrison equation for competitive binding. (In general: In TR-FRET formats the signal depends on donor and acceptor labels being close together.)

The test system of a further test is pERK in MKN1 cells. Put plainly: pERK inhibition, In-Cell Western (LI-COR Odyssey), MKN1 cells. The format is cell-based. The conditions noted are these: Homo sapiens, MKN-1, Table B; MKN1 or H358 cells (table does not say which); 0.5-1 hour incubation; read-out: IC50 (nM), pERK inhibition. Summed up:
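IC50 was fitted from % pERK inhibition, calculated as the GAPDH-normalised pERK signal of each well divided by the vehicle mean. Signal was imaged at 700 and 800 nm after fixation, methanol permeabilisation and dual antibody staining. Before fixation, MKN1 cells had received compound for about 0.5–1 h at 37 °C, top concentration 10 µM, nine 3-fold dilutions.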

Broadly, the Ki is the equilibrium dissociation constant of an inhibitor or competing ligand from its target. Usually IC50 stands for the concentration that inhibits the measured activity by half. With `Cc1nnc(N[C@H](C)c2cccc(C(F)(F)F)c2F)c2cc(N3CC[C@@H](N(C)C)C3)ncc12` [Example 1-86, 7-((R)-3-(dimethylamino)pyrrolidin-1-yl)-N-((R)-1-(2-fluoro-3-(trifluoromethyl)phenyl)ethyl)-4-methylpyrido[3,4-d]pyridazin-1-amine], the inhibition constant Ki in test [1] worked out at 0.372 nM. Further, the IC50 with pERK in MKN1 cells came to 50.8 nM.
In the same order, the values of `Cc1nnc(N[C@H](C)c2cccc(C(F)(F)F)c2F)c2cc(N3CC4(CNC4)C3)ncc12` [Example 1-87, (R)-N-(1-(2-fluoro-3-(trifluoromethyl)phenyl)ethyl)-4-methyl-7-(2,6-diazaspiro[3.3]heptan-2-yl)pyrido[3,4-d]pyridazin-1-amine] are 0.524 nM and 273 nM.
In the same order, the values of `CCN1CC[C@@H](N(C)c2cc3c(N[C@H](C)c4cccc(C#N)c4C)nnc(C)c3cn2)C1` [Example 1-88, 3-((R)-1-((7-(((R)-1-ethylpyrrolidin-3-yl)(methyl)amino)-4-methylpyrido[3,4-d]pyridazin-1-yl)amino)ethyl)-2-methylbenzonitrile] are 1.37 nM and 35.5 nM.
Take `CCN1CC[C@H](N(C)c2cc3c(N[C@H](C)c4cccc(C#N)c4C)nnc(C)c3cn2)C1` [Example 1-89, 3-((R)-1-((7-(((S)-1-ethylpyrrolidin-3-yl)(methyl)amino)-4-methylpyrido[3,4-d]pyridazin-1-yl)amino)ethyl)-2-methylbenzonitrile]: in test [1], the inhibition constant Ki came out at 1.71 nM. In addition, the IC50 with pERK in MKN1 cells was found to be 32.6 nM.
In the case of `Cc1nnc(N[C@H](C)c2cccc(C(F)(F)F)c2F)c2cc(N(C)[C@@H]3CCCN(C)C3)ncc12` [Example 1-90, N^1-((R)-1-(2-fluoro-3-(trifluoromethyl)phenyl)ethyl)-N^7,4-dimethyl-N^7-((R)-1-methylpiperidin-3-yl)pyrido[3,4-d]pyridazine-1,7-diamine], the inhibition constant (Ki) in test [1] stood at 0.453 nM. Also, in the test with pERK in MKN1 cells, the half-inhibitory concentration (IC50) is 102 nM.
The like results for `COCCN(C)c1cc2c(N[C@H](C)c3cccc(C#N)c3C)nnc(C)c2cn1` [Example 1-91, (R)-3-(1-((7-((2-methoxyethyl)(methyl)amino)-4-methylpyrido[3,4-d]pyridazin-1-yl)amino)ethyl)-2-methylbenzonitrile] were, in that order, 6.07 nM and 225 nM.
The like results for `Cc1nnc(N[C@H](C)c2cc(N)cc(C(F)(F)F)c2F)c2cc(N3CC(C)(O)C3)ncc12` [Example 1-93, (R)-1-(1-((1-(5-amino-2-fluoro-3-(trifluoromethyl)phenyl)ethyl)amino)-4-methylpyrido[3,4-d]pyridazin-7-yl)-3-methylazetidin-3-ol] were, in that order, 0.361 nM and 50.5 nM.
In the same order, the values of `Cc1nnc(N[C@H](C)c2cc(N)cc(C(F)(F)F)c2F)c2cc(N3CC4CC(C3)O4)ncc12` [Example 1-94, N-((R)-1-(5-amino-2-fluoro-3-(trifluoromethyl)phenyl)ethyl)-7-(6-oxa-3-azabicyclo[3.1.1]heptan-3-yl)-4-methylpyrido[3,4-d]pyridazin-1-amine] are 0.264 nM and 15.4 nM.
In the case of `Cc1nnc(N[C@H](C)c2cc(N)cc(C(F)(F)F)c2F)c2cc(N3CC4CC(C3)O4)ccc12` [Example 1-95, N-((R)-1-(5-amino-2-fluoro-3-(trifluoromethyl)phenyl)ethyl)-7-(6-oxa-3-azabicyclo[3.1.1]heptan-3-yl)-4-methylphthalazin-1-amine], in test [1], the inhibitory constant (Ki) was determined as 0.31 nM. Besides, in the test on pERK in MKN1 cells, the IC50 is 19.8 nM.
The like results for `Cc1nnc(N[C@H](C)c2ccc(C#N)cc2F)c2cc(N3C[C@H]4C[C@@H]3CO4)ncc12` [Example 1-96, 4-((R)-1-((7-((1R,4R)-2-oxa-5-azabicyclo[2.2.1]heptan-5-yl)-4-methylpyrido[3,4-d]pyridazin-1-yl)amino)ethyl)-3-fluorobenzonitrile] were, in that order, 19.1 nM and 255 nM.
In the same order, the values of `Cc1nnc(N[C@H](C)c2ccc(C#N)cc2F)c2cc(N3CCN4CCOC[C@@H]4C3)ncc12` [Example 1-97, 3-fluoro-4-((R)-1-((7-((S)-hexahydropyrazino[2,1-c][1,4]oxazin-8(1H)-yl)-4-methylpyrido[3,4-d]pyridazin-1-yl)amino)ethyl)benzonitrile] are 17.7 nM and 358 nM.
The like results for `Cc1nnc(N[C@H](C)c2cccc3c2OCC3(F)F)c2cc(N3CC4(CN(C)C4)C3)ncc12` [Example 1-99, (R)-N-(1-(3,3-difluoro-2,3-dihydrobenzofuran-7-yl)ethyl)-4-methyl-7-(6-methyl-2,6-diazaspiro[3.3]heptan-2-yl)pyrido[3,4-d]pyridazin-1-amine] were, in that order, 0.357 nM and 19.1 nM.
As for `Cc1nnc(N[C@H](C)c2cccc3c2OCC3(F)F)c2cc(N3CCN(C)CC3)ncc12` [Example 1-100, (R)-N-(1-(3,3-difluoro-2,3-dihydrobenzofuran-7-yl)ethyl)-4-methyl-7-(4-methylpiperazin-1-yl)pyrido[3,4-d]pyridazin-1-amine], the inhibitory constant (Ki) in test [1] worked out at 0.423 nM. Besides, in the test on pERK in MKN1 cells, the concentration for half-maximal inhibition (IC50) amounted to 25.1 nM.
The like results for `CCN1CCN(c2cc3c(N[C@H](C)c4cccc5c4OCC5(F)F)nnc(C)c3cn2)CC1` [Example 1-101, (R)-N-(1-(3,3-difluoro-2,3-dihydrobenzofuran-7-yl)ethyl)-7-(4-ethylpiperazin-1-yl)-4-methylpyrido[3,4-d]pyridazin-1-amine] were, in that order, 0.326 nM and 26.2 nM.
The like results for `Cc1c([C@@H](C)Nc2nnc(C)c3cnc(N4CCN(C)CC4)cc23)cc(N)nc1C(F)(F)F` [Example 1-102, (R)-N-(1-(6-amino-3-methyl-2-(trifluoromethyl)pyridin-4-yl)ethyl)-4-methyl-7-(4-methylpiperazin-1-yl)pyrido[3,4-d]pyridazin-1-amine] were, in that order, 2.18 nM and 37 nM.
In the same order, the values of `CCN(c1cc2c(N[C@H](C)c3cccc(C#N)c3C)nnc(C)c2cn1)[C@@H]1CCN(C)C1` [Example 1-103, 3-((R)-1-((7-(ethyl((R)-1-methylpyrrolidin-3-yl)amino)-4-methylpyrido[3,4-d]pyridazin-1-yl)amino)ethyl)-2-methylbenzonitrile] are 1.1 nM and 48.4 nM.
Turning to `Cc1c([C@@H](C)Nc2nnc(C)c3cnc(N4CCOCC4)cc23)cc(N)nc1C(F)(F)F` [Example 1-105, (R)-N-(1-(6-amino-3-methyl-2-(trifluoromethyl)pyridin-4-yl)ethyl)-4-methyl-7-morpholinopyrido[3,4-d]pyridazin-1-amine], the inhibitory constant (Ki) in test [1] was determined as 4.39 nM. Also, in the test on pERK in MKN1 cells, the IC50 is 31.1 nM.
The like results for `Cc1c([C@@H](C)Nc2nnc(C)c3cnc(N4C[C@H]5C[C@@H]4CO5)cc23)cc(N)nc1C(F)(F)F` [Example 1-106, N-((R)-1-(6-amino-3-methyl-2-(trifluoromethyl)pyridin-4-yl)ethyl)-7-((1R,4R)-2-oxa-5-azabicyclo[2.2.1]heptan-5-yl)-4-methylpyrido[3,4-d]pyridazin-1-amine] were, in that order, 7.3 nM and 128 nM.
On to `Cc1c([C@@H](C)Nc2nnc(C)c3cnc(N4CC5(COC5)C4)cc23)cc(N)nc1C(F)(F)F` [Example 1-107, (R)-N-(1-(6-amino-3-methyl-2-(trifluoromethyl)pyridin-4-yl)ethyl)-4-methyl-7-(2-oxa-6-azaspiro[3.3]heptan-6-yl)pyrido[3,4-d]pyridazin-1-amine], for which the Ki in test [1] was determined as 22.5 nM. In addition, in the test on pERK in MKN1 cells, the 50% inhibitory concentration (IC50) came to 239 nM.
`Cc1nnc(N[C@H](C)c2cccc3c2OCC3(F)F)c2cc(N3CCOCC3)ncc12` [Example 1-108, (R)-N-(1-(3,3-difluoro-2,3-dihydrobenzofuran-7-yl)ethyl)-4-methyl-7-morpholinopyrido[3,4-d]pyridazin-1-amine]: in test [1], the inhibitory constant (Ki) was found to be 2.31 nM. Further, in the test with pERK in MKN1 cells, the IC50 was 35.7 nM.
The like results for `Cc1nnc(N[C@H](C)c2cccc(C(C)(F)F)c2F)c2cc(N3CCN(C)CC3)ncc12` [Example 1-109, (R)-N-(1-(3-(1,1-difluoroethyl)-2-fluorophenyl)ethyl)-4-methyl-7-(4-methylpiperazin-1-yl)pyrido[3,4-d]pyridazin-1-amine] were, in that order, 0.647 nM and 41.3 nM.
The like results for `Cc1c(C#N)cccc1[C@@H](C)Nc1nnc(C)c2cnc(N3CCS(=O)(=O)CC3)cc12` [Example 1-110, (R)-3-(1-((7-(1,1-dioxidothiomorpholino)-4-methylpyrido[3,4-d]pyridazin-1-yl)amino)ethyl)-2-methylbenzonitrile] were, in that order, 3.36 nM and 240 nM.
In the same order, the values of `Cc1c([C@@H](C)Nc2nnc(C)c3ccc(N4CCOCC4)cc23)cc(N)nc1C(F)(F)F` [Example 1-111, (R)-N-(1-(6-amino-3-methyl-2-(trifluoromethyl)pyridin-4-yl)ethyl)-4-methyl-7-morpholinophthalazin-1-amine] are 2.91 nM and 57.9 nM.
